The values below come from patent publication US8492515B2 (priority 2008, dated 2013).

Converted amounts (≈) assume the structure as drawn. Square brackets hold non-standard residues; d marks the D form. Peptide text beside a SMILES is read from it. Ac6c = NC1(C(=O)O)CCCCC1

One series relates to E. coli 045-849. From the text:
(§1) To investigate the activity of the A3-APO metabolites, Chex1-Arg20 single chain unit and an Arg7-Arg20 common cleavage fragment were synthesized and studied for their ability to kill Enterobacteriaceae strains in undiluted Muller-Hinton broth, a true measure of potential clinical viability (Otvos et al., 2005. J. Med. Chem. 48: 5349-5359). The peptides of the invention were made on a CEM Liberty automated synthesizer with standard Fmoc-chemistry. The peptides were detached from the resin with the carboxyl terminus of the C-terminal Arg residue being in the form of an amino amide, —C(O)—NH2 (“Chex1-Arg20-NH2” and “Arg7-Arg20-NH2”), while still in the microwave chamber, and were purified by RP-HPLC. […] The biological studies carried out on chemically synthesized peptides in this example and succeeding examples were carried out on the C-terminal modified versions of the peptides wherein the C-terminal carboxylic acid function was in the form of an amide, —C(O)—NH2. Antibacterial growth inhibition assays were performed using sterile 96-well polypropylene plates (Nunc F96 microtiter plates) in a final volume of 100 μL as described previously (Cudic et al., 2002. Peptides 23: 271-283). The cell concentrations were estimated by measuring the ultraviolet absorbance at 600 nm and applying the formula cfu/mL=A600(3.8×10^8), where cfu is the number of colony-forming units. Briefly, 50 μL of a suspension of midlogarithmic phase bacterial cultures diluted to 5×10^5 cfu/mL in Muller-Hinton broth (MHB) was added to 50 μL of serially diluted peptides also dissolved in MHB. The final peptide concentration was 128 μg/mL. Cultures were then incubated at 37° C., 5% CO2 for 16-20 h without shaking, and growth inhibition was measured by recording the absorbance at 600 nm using a microplate reader. […] The minimal inhibitory concentration indicates the lowest peptide dose where no visible bacterial growth is detected after 16 hours incubation in full strength Muller-Hinton broth at 37° C. The peptide Chex-pyrr-Dap dimer was also included in the study. […] (Cudic et al., 2002. Peptides 23: 271-283).
(§2) Following the protocol of Example 2, minimal inhibitory concentrations of the Chex1-Arg20 peptide against selected bacteria was determined. […] A3-APO was included for comparison.

Series [1] deals with S. saprophyticus ATCC 15305.
From the text: as §1, §2

The subject of another series is K. pneumoniae 012-3132.
From the text: as §1, §2

For another series, the system named is E. coli SEQ102.
From the text: as §1, §2

The subject of series [2] is S. typhimurium ATCC 14028.
From the text: as §1, §2

For series [3], the system named is A. baumannii ATCC BBA-1605.
From the text: as §1, §2

The test system of another series is K. pneumoniae K6.
From the text: as §1, §2

The test system of a further series is S. typhimurium S5.
From the text: as §1, §2

The next series deals with S. typhimurium G10215.
From the text: as §1, §2

In the next series the test system is E. coli HK131.
From the text: as §1, §2

In a further series the test system is K. pneumoniae HK 127.
From the text: as §1, §2

Another series concerns E. coli HK179.
From the text: as §1, §2

A further series relates to P. aeruginosa ATCC 39329.
From the text: as §1, §2

The next series deals with E. coli SOTE40.
From the text: as §1, §2

Another series relates to P. aeruginosa 10.
From the text: as §1, §2

The test system of a further series is E. coli 5770.
From the text: as §1, §2

The next series deals with K. pneumoniae HK 186.
From the text: as §1, §2

The next series relates to K. pneumoniae HK 123.
From the text: as §1, §2

Series [4] relates to Escherichia coli isolates.
Series [5] is classed as in vitro ADME, CD-1 mice. As for the experimental part:
Female CD-1 mice of 8 weeks were retroorbitally bled and 6 μg A3-APO peptide dissolved in 10 μL phosphate buffered saline (PBS) was immediately added to approximately 100 μL retrieved blood. After 30 min incubation at 37° C., the cells were removed by 10 min centrifugation at 2,000 rpm, 50 μL PBS was added to 50 μL of the plasma, followed by addition of 45 μL of 15% TCA. The rest of the analysis was done as described for the serum stability studies. Control blood was treated identically without A3-APO peptide addition. […] While the double charged ion at 2519 M/z from the serum studies could not be detected, the two serum components at 1798 and 2969 M/z and two new peaks at 2321 and 2577 M/z were present. These latter peptide species correspond to stable early degradation products.
Ex vivo blood stability studies were repeated on Chex1-Arg20 according to the protocol described above “Stability of Peptide A3-APO in Whole Blood”. […] The only degradation product that could be detected, at about one third of the peak height of the Chex1-Arg20 starting material, was at 2321 M/z, representing a fragment with the C-terminal arginine missing. Apparently this cleavage product is the Chex1-Val19 fragment observed for peptide A3-APO when the stability studies were done in blood ex vivo (see and compare with the lower panel of FIG. 2 and Table 1). […]

As to `CC(C)C[C@H](NC(=O)[C@H](Cc1ccc(O)cc1)NC(=O)[C@@H]1CCCN1C(=O)[C@H](CCCNC(=N)N)NC(=O)[C@@H]1CCCN1C(=O)[C@H](CCCCN)NC(=O)[C@H](CC(=O)O)NC(=O)[C@@H]1CCCN1C(=O)[C@H](CCCNC(=N)N)NC(=O)C1(N)CCCCC1)C(=O)N1CCC[C@H]1C(=O)N[C@@H](CCCNC(=N)N)C(=O)N1CCC[C@H]1C(=O)N[C@@H](CCCNC(=N)N)C(=O)N1CCC[C@H]1C(=O)N1CCC[C@H]1C(=O)N[C@@H](CCCNC(=N)N)C(=O)N1CCC[C@H]1C(=O)N[C@H](C(=O)N[C@@H](CCCNC(=N)N)C(=O)O)C(C)C` [Chex1-Arg20, Chex-Arg-Pro-Asp-Lys-Pro-Arg-Pro-Tyr-Leu-Pro-Arg-Pro-Arg--Pro-Pro-Arg-Pro-Val-Arg] (H-[Ac6c]RPDKPRPYLPRPRPPRPVR-OH; N-terminus and C-terminus assumed), the “MIC, E. coli 045-849” value in the series with E. coli 045-849 is 2 mg/L (≈ 0.808 µM). Further, in [1], the “MIC, S. saprophyticus ATCC 15305” value came to 4 mg/L (≈ 1.62 µM). In addition, the “MIC, K. pneumoniae 012-3132” value with K. pneumoniae 012-3132 amounted to 0.25 mg/L (≈ 0.101 µM). In addition, the “MIC, E. coli SEQ102” value in the series with E. coli SEQ102 turned out to be 1 mg/L (≈ 0.404 µM). The “MIC, S. typhimurium ATCC 14028” value in [2] was 1 mg/L (≈ 0.404 µM). Moreover, in series [3], the “MIC, A. baumannii ATCC BBA-1605” value was 16 mg/L (≈ 6.46 µM). In the series with K. pneumoniae K6, the “MIC, K. pneumoniae K6” value came out at 2 mg/L (≈ 0.808 µM). Moreover, in the series with S. typhimurium S5, the “MIC, S. typhimurium S5” value turned out to be 0.5 mg/L (≈ 0.202 µM). The “MIC, S. typhimurium G10215” value in the series on S. typhimurium G10215 was determined as 0.25 mg/L (≈ 0.101 µM). The “MIC, E. coli HK131” value in the series with E. coli HK131 was 1 mg/L (≈ 0.404 µM). In the series with K. pneumoniae HK 127, the “MIC, K. pneumoniae HK 127” value is 0.25 mg/L (≈ 0.101 µM). Further, the “MIC, E. coli HK179” value against E. coli HK179 was determined as 1 mg/L (≈ 0.404 µM). Also, in the series with P. aeruginosa ATCC 39329, the “MIC, P. aeruginosa ATCC 39329” value is 32 mg/L (≈ 12.9 µM). Moreover, in the series on E. coli SOTE40, the “MIC, E. coli SOTE40” value came out at 2 mg/L (≈ 0.808 µM). Moreover, the “MIC, P. aeruginosa 10” value in the series with P. aeruginosa 10 was 32 mg/L (≈ 12.9 µM). Also, the “MIC, E. coli 5770” value in the series on E. coli 5770 was 0.5 mg/L (≈ 0.202 µM). The “MIC, K. pneumoniae HK 186” value with K. pneumoniae HK 186 was 0.25 mg/L (≈ 0.101 µM). In addition, the “MIC, K. pneumoniae HK 123” value with K. pneumoniae HK 123 was found to be 2 mg/L (≈ 0.808 µM). Moreover, the “minimal bactericidal concentrations (MBC)” value in series [4] is 2 to 32 mg/L. For the same compound, in [5], the “peak height of the only degradation product (2321 M/z) relative to starting material” value is reported as “about one third”.
